For the experiment, the target named is PKM2 (Homo sapiens, UniProt P14618). In words: PKM2 Assay (activation, LDH-coupled, absorbance at 340 nm). Format: biochemical. A digest of the protocol:
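Human PKM2 (50 ng/well) was preincubated with compound and coupling mix for 30 min at 4 °C without ADP. Reactions were then started with ADP (0.7 mM) alongside PEP 0.15 mM, NADH 180 μM and LDH, in Tris pH 7.5/KCl/MgCl2/DTT/BSA buffer. A340 was followed at 25 °C and activation reported as AC50.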

Sequence of PKM2 (P14618 whole entry): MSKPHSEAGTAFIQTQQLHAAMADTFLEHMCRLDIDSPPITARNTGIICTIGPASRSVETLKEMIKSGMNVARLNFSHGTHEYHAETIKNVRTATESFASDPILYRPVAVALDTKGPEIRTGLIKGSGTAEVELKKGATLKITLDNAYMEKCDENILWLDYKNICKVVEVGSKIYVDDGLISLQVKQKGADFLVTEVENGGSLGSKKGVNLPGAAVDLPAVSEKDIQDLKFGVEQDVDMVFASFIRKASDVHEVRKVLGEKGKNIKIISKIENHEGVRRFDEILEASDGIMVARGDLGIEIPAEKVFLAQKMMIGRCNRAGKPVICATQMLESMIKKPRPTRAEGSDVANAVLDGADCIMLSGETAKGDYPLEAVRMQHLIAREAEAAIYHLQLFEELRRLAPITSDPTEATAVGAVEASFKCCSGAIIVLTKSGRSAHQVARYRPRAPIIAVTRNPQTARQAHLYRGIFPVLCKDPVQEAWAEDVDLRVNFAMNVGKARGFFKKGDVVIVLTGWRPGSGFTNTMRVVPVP

As for `C[C@@H]1CN(CC2CCCCC2)CCN1C(=O)c1ccc(NS(=O)(=O)c2cccc3cccnc23)cc1` [Compound 151, (R)—N-(4-(4-(cyclohexylmethyl)-2-methylpiperazine-1-carbonyl)phenyl)quinoline-8-sulfonamide], the AC50 (Table 4) was less than 100 nM. `CC(c1c(F)cc(F)cc1F)N1CCN(C(=O)c2ccc(NS(=O)(=O)c3cccc4cccnc34)cc2)[C@@H](C)C1` (stereo partly shown) [Compound 172] registered an AC50 (Table 4) of 100 to 500 nM. Consider `O=C(c1ccc(NS(=O)(=O)c2cccc3cccnc23)c(OC(F)(F)F)c1)N1CCN(Cc2ccc(F)cc2)CC1` [Compound 337, N-(4-(4-(4-fluorobenzyl)piperazine-1-carbonyl)-2-(trifluoromethoxy)phenyl)quinoline-8-sulfonamide], for which the AC50 (Table 5) lay in the range of 1000 to 20000 nM. For the compound `CC(C)OC(=O)N1CCN(C(=O)c2ccc(NS(=O)(=O)c3cccc4cccnc34)cc2)[C@H](C)C1` [Compound 110, (R)-Isopropyl 3-methyl-4-(4-(quinoline-8-sulfonamido)benzoyl)piperazine-1-carboxylate], the AC50 (Table 4) is less than 100 nM.

Compound `Cc1cnc(C(=O)N2CCN(C(=O)c3ccc(NS(=O)(=O)c4cccc5cccnc45)c(OC(F)(F)F)c3)CC2)cn1` [Compound 325] registered an AC50 (Table 5) of 1000 to 20000 nM. As to `C[C@H]1CN(Cc2c(F)ccc(F)c2F)CCN1C(=O)c1ccc(NS(=O)(=O)c2cccc3cccnc23)cc1` [Compound 141, (S)—N-(4-(2-methyl-4-(2,3,6-trifluorobenzyl)piperazine-1-carbonyl)phenyl)quinoline-8-sulfonamide], for the setting “Table 4”, the AC50 lay within 100 to 500 nM.

In turn, `CCOC(=O)N1[C@H](C)CN(C(=O)c2ccc(NS(=O)(=O)c3cccc4cccnc34)cc2)C[C@@H]1C` [Compound 117, (2S,6R)-ethyl 2,6-dimethyl-4-(4-(quinoline-8-sulfonamido)benzoyl)piperazine-1-carboxylate] displayed an AC50 (Table 4) of more than 20000 nM. `COc1cccc(CN2CCN(C(=O)c3ccc(NS(=O)(=O)c4cccc5cccnc45)cc3)[C@@H](C)C2)c1OC` [Compound 146, (S)—N-(4-(4-(2,3-dimethoxybenzyl)-2-methylpiperazine-1-carbonyl)phenyl)quinoline-8-sulfonamide]: the AC50 (Table 4) was in the range of 1000 to 20000 nM. Turning to `COc1cc(NS(=O)(=O)c2cccc3cccnc23)ccc1C(=O)N1CCN(C(C)(C)c2ccccc2)CC1` [Compound 355, N-(3-methoxy-4-(4-(2-phenylpropan-2-yl)piperazine-1-carbonyl)phenyl)quinoline-8-sulfonamide], the AC50 (Table 5) is less than 100 nM. `CC(C)(c1ccccc1F)N1CCN(C(=O)c2ccc(NS(=O)(=O)c3cccc4cccnc34)cc2)CC1` [Compound 409, N-(4-(4-(2-(2-fluorophenyl)propan-2-yl)piperazine-1-carbonyl)phenyl)quinoline-8-sulfonamide] had an AC50 (Table 5) of 100 to 500 nM. Still for that read-out and setting: in the case of `CC(C)(c1cc(F)cc(F)c1)N1CCN(C(=O)c2ccc(NS(=O)(=O)c3cccc4cccnc34)cc2)CC1` [Compound 410] it was less than 100 nM. Take `C[C@H]1CN(C(=O)c2ccccn2)CCN1C(=O)c1ccc(NS(=O)(=O)c2cccc3cccnc23)cc1` [Compound 101]: where the note is “Table 4”, the AC50 lay within 100 to 500 nM. On the same count and under the same terms, for `C[C@@H]1CN(C(=O)OCCC2CCCC2)CCN1C(=O)c1ccc(NS(=O)(=O)c2cccc3cccnc23)cc1` [Compound 122, (R)-2-Cyclopentylethyl-3-methyl-4-(4-(quinoline-8-sulfonamido)benzoyl)piperazine-1-carboxylate] the value was less than 100 nM; for `CC1CN(C(=O)c2ccccn2)CC(C)N1C(=O)c1ccc(NS(=O)(=O)c2cccc3cccnc23)cc1` (racemic) [Compound 116], 1000 to 20000 nM. In turn, `O=C(c1ccc(NS(=O)(=O)c2cccc3cccnc23)cc1)N1CCN(C(=O)c2ccno2)CC1` [Compound 365, N-(4-(4-(isoxazole-5-carbonyl)piperazine-1-carbonyl)phenyl)quinoline-8-sulfonamide] registered an AC50 (Table 5) of less than 100 nM.

In the case of `CC(C)COC(=O)N1[C@H](C)CN(C(=O)c2ccc(NS(=O)(=O)c3cccc4cccnc34)cc2)C[C@@H]1C` [Compound 105, (2S,6R)-isobutyl-2,6-dimethyl-4-(4-(quinoline-8-sulfonamido)benzoyl)piperazine-1-carboxylate], where the note is “Table 4”, the AC50 is 100 to 500 nM. For the setting “Table 5”, `COc1cc(C(=O)N2CCN(C(=O)c3ccc(F)c(F)c3)CC2)ccc1NS(=O)(=O)c1cccc2cccnc12` [Compound 319, N-(4-(4-(3,4-difluorobenzoyl)piperazine-1-carbonyl)-2-methoxyphenyl)quinoline-8-sulfonamide] had an AC50 of 100 to 500 nM. As for `O=C(c1ccc(NS(=O)(=O)c2cccc3cccnc23)cc1)N1CCN(CC2CCC2)CC1` [Compound 419, N-(4-(4-(cyclobutylmethyl)piperazine-1-carbonyl)phenyl)quinoline-8-sulfonamide], the AC50 (Table 5) was less than 100 nM. For `C[C@@H]1CN(Cc2cc(F)c(F)c(F)c2)CCN1C(=O)c1ccc(NS(=O)(=O)c2cccc3cccnc23)cc1` [Compound 149, (R)—N-(4-(2-methyl-4-(3,4,5-trifluorobenzyl)piperazine-1-carbonyl)phenyl)quinoline-8-sulfonamide], the AC50 (Table 4) was less than 100 nM.

The compound `C[C@H]1CN(Cc2c(F)cc(F)cc2F)CCN1C(=O)c1ccc(NS(=O)(=O)c2cccc3cccnc23)cc1` [Compound 164, (S)—N-(4-(2-methyl-4-(2,4,6-trifluorobenzyl)piperazine-1-carbonyl)phenyl)quinoline-8-sulfonamide] gave an AC50 (Table 4) of 100 to 500 nM. With `O=C(c1ccncc1)N1CCN(C(=O)c2ccc(NS(=O)(=O)c3cccc4cccnc34)c(OC(F)(F)F)c2)CC1` [Compound 363], for the setting “Table 5”, the AC50 lay within 100 to 500 nM. On to `COc1cccc(CN2CCN(C(=O)c3ccc(NS(=O)(=O)c4cccc5cccnc45)cc3)[C@H](C)C2)c1OC` [Compound 130, (R)—N-(4-(4-(2,3-dimethoxybenzyl)-2-methylpiperazine-1-carbonyl)phenyl)quinoline-8-sulfonamide], for which the AC50 (Table 4) was less than 100 nM. Regarding `[2H]C([2H])(c1cc(F)cc(F)c1)N1CCN(C(=O)c2ccc(NS(=O)(=O)c3cccc4cccnc34)cc2)CC1` [Compound 449, N-(4-(4-(3,5-difluorobenzyl)piperazine-1-carbonyl)phenyl)quinoline-8-sulfonamide-(D2)], the AC50 (Table 5) is less than 100 nM. As to `O=C(c1ccc(NS(=O)(=O)c2cccc3cccnc23)cc1)N1C2CCC1CN(Cc1ccc(F)cc1)C2` [Compound 226, N-(4-(3-(4-fluorobenzyl)-3,8-diazabicyclo[3.2.1]octane-8-carbonyl)phenyl)quinoline-8-sulfonamide], the AC50 (Table 4) was less than 100 nM.

For `CC1CN(Cc2cc(F)cc(F)c2)CC(C)N1C(=O)c1ccc(NS(=O)(=O)c2cccc3cccnc23)cc1` (stereo not shown) [Compound 194, N-(4-(4-(3,5-difluorobenzyl)-2,6-dimethylpiperazine-1-carbonyl)phenyl)quinoline-8-sulfonamide], the AC50 (Table 4) was less than 100 nM. Where the note is “Table 4”, `O=C(c1ccc(NS(=O)(=O)c2cccc3cccnc23)cc1)N1CCN(Cc2ccc(F)cc2)C[C@@H]1c1ccccc1` [Compound 165] gave an AC50 of less than 100 nM. In the case of `CCOC(=O)N1CCN(C(=O)c2ccc(NS(=O)(=O)c3cccc4cccnc34)cc2)[C@H](C)C1` [Compound 109, (R)-Ethyl 3-methyl-4-(4-(quinoline-8-sulfonamido)benzoyl)piperazine-1-carboxylate], where the note is “Table 4”, the AC50 was in the range of 100 to 500 nM. Same read-out and setting: in the case of `CC(C)[C@H]1CN(Cc2cc(F)cc(F)c2)CCN1C(=O)c1ccc(NS(=O)(=O)c2cccc3cccnc23)cc1` [Compound 176] it was 1000 to 20000 nM. For the setting “Table 5”, `O=C(c1ccc(NS(=O)(=O)c2cccc3cccnc23)cc1F)N1CCN(CC2CCCO2)CC1` (stereo not shown) [Compound 437, N-(3-fluoro-4-(4-((tetrahydrofuran-2-yl)methyl)piperazine-1-carbonyl)phenyl)quinoline-8-sulfonamide] gave an AC50 of less than 100 nM. Regarding `C[C@@H]1CN(Cc2cc(F)cc(F)c2)CCN1C(=O)c1ccc(NS(=O)(=O)c2cccc3cccnc23)cc1` [Compound 119, (R)—N-(4-(4-(3,5-difluorobenzyl)-2-methylpiperazine-1-carbonyl)phenyl)quinoline-8-sulfonamide], the AC50 (Table 4) is less than 100 nM. On to `O=C(c1ccc(NS(=O)(=O)c2cccc3cccnc23)c(OC(F)(F)F)c1)N1CCN(C(=O)c2cscn2)CC1` [Compound 324, N-(4-(4-(thiazole-4-carbonyl)piperazine-1-carbonyl)-2-(trifluoromethoxy)phenyl)quinoline-8-sulfonamide], for which the AC50 (Table 5) lay within 100 to 500 nM. Compound `C[C@@H]1CN(CC2CCCO2)CCN1C(=O)c1ccc(NS(=O)(=O)c2cccc3cccnc23)cc1` (stereo partly drawn) [Compound 147, N-(4-((2R)-2-methyl-4-((tetrahydrofuran-2-yl)methyl)piperazine-1-carbonyl)phenyl)quinoline-8-sulfonamide] registered an AC50 (Table 4) of less than 100 nM. Take “N-(4-(3,5-dimethylpiperazine-1-carbonyl)phenyl)quinoline-8-sulfonamide [Compound 104]”: the AC50 (Table 4) lay in the range of 100 to 500 nM. Compound `COc1cc(NS(=O)(=O)c2cccc3cccnc23)ccc1C(=O)N1CCN(C2(c3ccc(F)cc3)CC2)CC1` [Compound 401, N-(4-(4-(1-(4-fluorophenyl)cyclopropyl)piperazine-1-carbonyl)-3-methoxyphenyl)quinoline-8-sulfonamide] registered an AC50 (Table 5) of less than 100 nM. Compound `[2H]C(c1ccc(F)cc1)N1CCN(C(=O)c2ccc(NS(=O)(=O)c3cccc4cccnc34)cc2)CC1` (stereo not shown) [Compound 448, N-(4-(4-(4-fluorobenzyl)piperazine-1-carbonyl)phenyl)quinoline-8-sulfonamide-(D)] had an AC50 (Table 5) of less than 100 nM.

`O=C(O[C@@H]1CCOC1)N1CCN(C(=O)c2ccc(NS(=O)(=O)c3cccc4cccnc34)c(OC(F)(F)F)c2)CC1` [Compound 311] returned an AC50 (Table 5) of 1000 to 20000 nM. `COc1cccc(F)c1CN1CCN(C(=O)c2ccc(NS(=O)(=O)c3cccc4cccnc34)c(OC(F)(F)F)c2)CC1` [Compound 308, N-(4-(4-(2-fluoro-6-methoxybenzyl)piperazine-1-carbonyl)-2-(trifluoromethoxy)phenyl)quinoline-8-sulfonamide]: the AC50 (Table 5) is 500 to 1000 nM.

As usually defined, the AC50 is the concentration at which the activity in the assay is half-maximal. A higher AC50 goes with activity only at high concentration.
